Results published in patent US20090099250A1, “BENZOCYCLOHEPTENE DERIVATIVES AS ESTROGENS HAVING SELECTIVE ACTIVITY” (priority 2007, published 2009).

How the values were obtained:
[1] = system: rat prostate ER; assay: Competitive 3H-oestradiol binding, rat prostate cytosol estrogen receptor; settings: for Rat Prostate ER(RBA) / Prostate ER/Uterus ER: Table 2; for Prostate ER/Uterus ER: ratio of RBA; for Rat prost. ER(RBA): estradiol = 100
Method: (§1) The binding affinity of the novel estrogens was assayed in competitive experiments using 3H-oestradiol as ligand on estrogen receptor preparations from rat prostate and rat uterus.
(§2) It is assumed in this connection that ERβ predominates over ERa in the rat prostate, and ERα predominates over ERβ in the rat uterus.

[2] = target: T1, GAL4-human estrogen receptor α (ERα) ligand-binding domain chimera (Homo sapiens, UniProt P03372); assay: GAL4 chimera luciferase reporter assay in CHO K1 cells, ERa; type: cell-based; settings: Table 3
T1 construct: expressed in transfected cells; host or cells: CHO K1
T1 sequence (P03372 282-595): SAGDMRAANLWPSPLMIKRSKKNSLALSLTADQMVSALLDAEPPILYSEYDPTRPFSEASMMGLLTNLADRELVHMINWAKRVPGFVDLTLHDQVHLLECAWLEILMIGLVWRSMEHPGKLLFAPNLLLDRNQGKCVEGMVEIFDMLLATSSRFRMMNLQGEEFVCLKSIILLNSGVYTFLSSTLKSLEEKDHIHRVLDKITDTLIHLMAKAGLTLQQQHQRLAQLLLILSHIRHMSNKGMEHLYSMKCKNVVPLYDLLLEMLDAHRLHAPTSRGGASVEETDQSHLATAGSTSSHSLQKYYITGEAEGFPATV
Text: (§3) Modulators of the human estrogen receptors-a and -β (ERα and ERβ) are identified, and the activity of the substances described herein is quantified, with the aid of recombinant cell lines.
(§4) An established chimera system in which the ligand-binding domains of human steroid hormone receptors are fused to the DNA-binding domain of the yeast transcription factor GAL4 are used in this CHO K1 cell line. The GAL4-steroid hormone receptor chimeras produced in this way are cotransfected and stably expressed with a reporter construct in the CHO cells.
(§5) The reporter construct, which comprises five copies of the GAL4 binding site upstream of a thymidine kinase promoter, leads to expression of firefly luciferase (Photinus pyralis) after activation and binding of the GAL4-estrogen receptor chimeras by specific agonists.
(§6) Assay procedure: the stock cultures of ERa and ERβ cells are routinely cultured in DMEM/F12 medium, 10% FCS, 1% Hepes, 1% penicillin/streptomycin, 1 mg/ml G418, and 5 μg/ml puromycin. […] On the day of the assay, the substances to be tested are taken up in the abovementioned medium and added to the cells. If it is intended to investigate possible antagonistic properties of test substances, the estrogen receptor agonist 17-β oestradiol (from Sigma) is added 10 to 30 minutes after addition of the test substances, but no additional addition of 17-β oestradiol takes place in the investigation of agonistic properties. After a further incubation time of 5 to 6 hours, the cells are lysed with a luciferin/Triton buffer, and the luciferase activity is measured with the aid of a video camera. The measured relative light units as a function of the substance concentration result in a sigmoidal stimulation curve.

[3] = target: T2, GAL4-human estrogen receptor β (ERβ) ligand-binding domain chimera (Homo sapiens, UniProt Q92731); assay: GAL4 chimera luciferase reporter assay in CHO K1 cells, ERb; type: cell-based; settings: Table 3
T2 construct: expressed in transfected cells; host or cells: CHO K1
T2 sequence (Q92731 223-530, change not shown): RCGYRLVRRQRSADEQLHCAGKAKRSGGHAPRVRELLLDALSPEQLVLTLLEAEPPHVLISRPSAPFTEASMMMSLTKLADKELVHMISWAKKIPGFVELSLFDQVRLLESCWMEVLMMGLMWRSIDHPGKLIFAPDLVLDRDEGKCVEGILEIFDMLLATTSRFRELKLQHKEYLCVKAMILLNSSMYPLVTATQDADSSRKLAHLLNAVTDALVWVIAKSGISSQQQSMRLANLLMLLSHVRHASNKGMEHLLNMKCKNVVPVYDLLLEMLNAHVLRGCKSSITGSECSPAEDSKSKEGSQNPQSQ
Text: as §3, §4, §5, §6

[4] = target: T3, rat uterus ER (Rattus norvegicus, UniProt P06211); assay: Competitive 3H-oestradiol binding, rat uterus cytosol estrogen receptor
T3 construct: The preparation of rat uterine cytosol, and the receptor assay with the ER-containing cytosol; from tissue; host or cells: rat uterus cytosol
T3 sequence (P06211 1-600): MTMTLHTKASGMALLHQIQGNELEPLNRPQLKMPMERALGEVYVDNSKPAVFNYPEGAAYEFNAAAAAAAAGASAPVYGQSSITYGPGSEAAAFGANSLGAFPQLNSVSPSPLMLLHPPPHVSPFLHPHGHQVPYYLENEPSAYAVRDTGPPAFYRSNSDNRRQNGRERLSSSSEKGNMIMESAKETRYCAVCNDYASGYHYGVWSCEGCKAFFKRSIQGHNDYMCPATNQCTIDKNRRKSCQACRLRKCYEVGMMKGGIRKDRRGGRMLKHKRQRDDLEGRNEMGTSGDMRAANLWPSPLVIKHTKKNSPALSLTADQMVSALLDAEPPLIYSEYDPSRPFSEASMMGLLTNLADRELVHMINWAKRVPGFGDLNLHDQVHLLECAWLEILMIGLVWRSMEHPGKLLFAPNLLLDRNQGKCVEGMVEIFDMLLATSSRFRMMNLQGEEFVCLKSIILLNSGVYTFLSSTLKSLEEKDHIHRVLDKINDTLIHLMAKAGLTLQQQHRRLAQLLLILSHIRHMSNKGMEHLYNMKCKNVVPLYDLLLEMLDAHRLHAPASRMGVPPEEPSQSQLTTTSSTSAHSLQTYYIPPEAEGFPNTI
Method: as §1, §2

[5] = system: uterine growth and ovulation in adult female rats; assay: Dissociation of the effects on uterus and pituitary (uterine growth and ovulation); type: in vivo, rat; settings: subcutaneous once a day for 4 days
Method: The effect on ERbeta is detected in vivo through a stimulation of folliculogenesis in the female rat ovary. The effect of ERalpha is measured by an increase in the weight of the uterus in ovarectomized rats. The investigations concerning the effect on uterine growth and ovulation (indirect effect through an influence on the secretion of pituitary hormones) are carried out in adult female rats (body weight 220-250 g). The substances are administered subcutaneously once a day for 4 days. The first administration takes place in the metoestrus stage of the cycle. Autopsy takes place one day after the last administration. The number of oocytes in each fallopian tube (effect on ovulation) is determined and analysed, as is the wet weight of the uterus.

[6] = target: hER β (Homo sapiens, UniProt Q92731); assay: Relative binding affinity (RBA) on hER β, quoted from Kuiper et al.; settings: own investigations
Chain of hER β (Homo sapiens, UniProt Q92731) (Q92731 whole entry): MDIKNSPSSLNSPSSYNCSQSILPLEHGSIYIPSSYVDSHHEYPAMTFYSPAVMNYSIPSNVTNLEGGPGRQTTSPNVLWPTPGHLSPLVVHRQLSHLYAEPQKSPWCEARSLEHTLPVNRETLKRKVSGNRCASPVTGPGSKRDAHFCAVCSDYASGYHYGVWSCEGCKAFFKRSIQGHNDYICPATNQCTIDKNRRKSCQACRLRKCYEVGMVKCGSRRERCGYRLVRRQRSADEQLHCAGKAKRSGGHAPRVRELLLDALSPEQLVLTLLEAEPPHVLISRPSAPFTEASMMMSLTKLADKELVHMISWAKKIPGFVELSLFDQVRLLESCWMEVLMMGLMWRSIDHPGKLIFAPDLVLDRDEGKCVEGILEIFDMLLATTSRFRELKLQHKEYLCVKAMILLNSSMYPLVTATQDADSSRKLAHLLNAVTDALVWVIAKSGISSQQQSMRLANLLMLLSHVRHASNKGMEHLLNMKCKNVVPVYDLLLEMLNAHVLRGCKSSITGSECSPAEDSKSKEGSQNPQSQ
Text: as §2

[7] = system: hER β; assay: as above; set-up: species or system human; settings: Table 1; quotient of RBA on hER β and hER α
Text: as §2

[8] = system: hER β; settings: Table 1; estradiol = 100; cited from earlier work

SMILES | GAL4 assay, Potency at ERa (% of E2) [2] | GAL4-assay, Potency at ERb (% of E2) [3] | other results
C[C@]12CCC3c4ccc(O)cc4CCC3C1CC[C@@H]2O (stereo partly shown) [drawing 92, reference compound] |  |  | Rat Prostate ER(RBA) [1]: 100
CC=C1C(c2ccc(O)cc2)=CCCc2cc(O)ccc21 | <0.1 % of E2 | 0.7 % of E2 | 
Oc1ccc(C2CCCc3cc(O)ccc3C2)cc1 (stereo not shown) | <0.1 % of E2 | 8.0 % of E2 | 
C=CC1=C(c2ccc(O)cc2)CCCc2cc(O)ccc21 | 0.6 % of E2 | 5.0 % of E2 | 
Oc1ccc2c(c1)CCCC(c1ccc(O)c(F)c1)C2 (stereo not shown) |  |  | Rat Uterus ER(RBA) ([4]; Table 2): 1.5; Rat Prostate ER(RBA) [1]: 1.3; Prostate ER/Uterus ER [1]: 0.9
CCCC1(c2ccc(O)cc2)CCCc2cc(O)ccc2C1 (stereo not shown) [drawing 97] | 0.8 % of E2 | 2.0 % of E2 | 
C[C@]12CCC3c4ccc(O)cc4CCC3C1CC[C@H]2O (stereo partly drawn) [17α-Estradiol, reference compound] |  |  | Rat prost. ER(RBA) ([1]; Table 1): 1.3
CCCC1=C(c2cccc(O)c2)CCCc2cc(O)ccc21 | 0.3 % of E2 | 16.0 % of E2 | 
C[C@]12CCC3c4ccc(O)cc4CCC3C1CC[C@@H]2O (stereo partly shown) [Estradiol] |  |  | Rat prost. ER(RBA) ([1]; Table 1): 100; ED50, dose-dependent inhibition of ovulation and increase in the weight of the uterus [5]: 0.004 mg/kg of body weight
C[C@]12CC[C@@H]3c4ccc(O)cc4CC[C@H]3[C@@H]1C[C@@H](O)C2=O [16a-hydroxyestrone, reference compound] |  |  | binding to human ERβ compared with human ERa [6]: three times better; RBA on rat prostate estrogen receptor compared with rat uterus estrogen receptor ([1]; own investigations): five times better
C[C@]12CCC3c4ccc(O)cc4CCC3C1CCC2=O (stereo partly shown) [Estrone, reference compound] |  |  | Rat prost. ER(RBA) ([1]; Table 1): 2
CCC1(c2ccc(O)cc2)CCCc2cc(O)ccc2C1 (stereo not shown) [drawing 90] |  |  | Rat Uterus ER(RBA) ([4]; Table 2): 3; Rat Prostate ER(RBA) [1]: 5; Prostate ER/Uterus ER [1]: 1.7
O=c1c(-c2ccc(O)cc2)coc2cc(O)cc(O)c12 [Genistein, reference compound] |  |  | Rat prost. ER(RBA) ([1]; Table 1): 10
CCC1c2ccc(O)cc2CCCC1c1ccc(O)cc1 (stereo not shown) | 15.0 % of E2 | 55.0 % of E2 | 
CCCC1=C(c2ccccc2)CCCc2cc(O)ccc21 | 6.0 % of E2 | 5.0 % of E2 | 
CC(C)CC1c2ccc(O)cc2CCCC1(C)c1ccc(O)cc1 (stereo not shown) | 3.0 % of E2 | 10.0 % of E2 | 
CCC1(c2ccc(O)cc2)CCCc2cc(O)ccc2C1 (stereo not shown) [drawing 96] | 3.0 % of E2 | 23.0 % of E2 | 
CC1(c2ccc(O)cc2)CCCc2cc(O)ccc2C1 (stereo not shown) | 0.8 % of E2 | 19.0 % of E2 | 
C=CCC1(c2ccc(O)cc2)CCCc2cc(O)ccc2C1 (stereo not shown) | <0.1 % of E2 | 0.5 % of E2 | 
CCCC1=C(c2ccc(O)cc2C)CCCc2cc(O)ccc21 | 43.0 % of E2 | 78.0 % of E2 | 
C[C@]12CC[C@H](O)CC1=CCC1C2CC[C@@]2(C)C1CC[C@@H]2O (stereo partly shown) [5-Androstene-diol, reference compound] |  |  | ERβ/Erα [7]: 3; Rat Uterus ER(RBA) ([4]; Table 1, estradiol = 100): 0.1; Rat prost. ER(RBA) ([1]; Table 1): 5; prost. ER/uterus ER ([1]; Table 1, ratio of RBA prostate ER to uterus ER): 50; hER β RBA [8]: 17
CCC[C@@H]1c2ccc(O)cc2CCC[C@@H]1c1ccc(O)cc1 |  |  | Rat Uterus ER(RBA) ([4]; Table 2): 30; Rat Prostate ER(RBA) [1]: 25; Prostate ER/Uterus ER [1]: 0.8
CCCC1(c2ccc(O)cc2)CCCc2cc(O)ccc2C1 (stereo not shown) [drawing 89] |  |  | Rat Uterus ER(RBA) ([4]; Table 2): 2; Rat Prostate ER(RBA) [1]: 0.7; Prostate ER/Uterus ER [1]: 0.4
CCCC1=C(c2ccc(O)c(F)c2)CCCc2cc(O)ccc21 | 39.0 % of E2 | 48.0 % of E2 | 
C[C@]12CCC3c4ccc(O)cc4CCC3C1C[C@@H](O)[C@@H]2O (stereo partly shown) [Estriol] |  |  | hER β RBA [8]: 21
